These results are taken from ChEMBL document CHEMBL2074097, “Urate transport via human PAH transporter hOAT1 and its gene structure” (Kidney Int, 2003).

The target of series [1] is T1, Solute carrier family 22 member 6 (Homo sapiens, UniProt Q4U2R8).
T1 sequence (Q4U2R8 whole entry): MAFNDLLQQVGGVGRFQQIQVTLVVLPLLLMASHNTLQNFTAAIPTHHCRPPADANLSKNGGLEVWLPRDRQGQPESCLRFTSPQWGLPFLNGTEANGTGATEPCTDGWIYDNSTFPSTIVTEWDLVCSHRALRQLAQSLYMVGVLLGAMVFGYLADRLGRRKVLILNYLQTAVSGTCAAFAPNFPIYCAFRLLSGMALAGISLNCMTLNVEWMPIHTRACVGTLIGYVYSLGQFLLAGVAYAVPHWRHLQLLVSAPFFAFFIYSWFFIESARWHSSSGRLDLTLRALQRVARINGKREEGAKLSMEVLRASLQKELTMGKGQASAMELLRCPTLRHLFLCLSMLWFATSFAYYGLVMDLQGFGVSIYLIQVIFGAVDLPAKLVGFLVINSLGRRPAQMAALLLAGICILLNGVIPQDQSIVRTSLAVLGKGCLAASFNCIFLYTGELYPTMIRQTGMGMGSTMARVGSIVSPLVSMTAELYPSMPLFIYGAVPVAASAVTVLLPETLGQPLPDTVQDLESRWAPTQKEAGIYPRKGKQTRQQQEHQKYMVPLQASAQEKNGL
Briefly: TP_TRANSPORTER: inhibition of Urate uptake (Urate: 300 uM, alpha-KG: 2000 uM) in OAT1-expressing S2 cells. It counts as functional, cell-based. As to conditions: s2, 2000 µM. Set-up: scale not given: the % may be the effect or the level left.

Substrate in series [2]: O=c1[nH]c(=O)c2[nH]c(=O)[nH]c2[nH]1
The series can be described thus: TP_TRANSPORTER: uptake in OAT1-expressing S2 cells. It is filed as functional, cell-based.

For the molecule `O=C(O)CCC(=O)C(=O)O` [ALPHA-KETOGLUTARIC ACID], in series [1], the Activity worked out at 12.4%.

B1: Solute carrier family 22 member 6 (Homo sapiens) (protein)
chain: T1 sequence (Q4U2R8 whole entry)
On to B1, for which, in series [2], the Km was found to be 947 µM.
